In ChEMBL document CHEMBL1154330, “Cucurbitane-type triterpenoids from the African plant Momordica balsamina” (J Nat Prod, 2009) one finds IC50 data, which are given here for 7 compounds.

The test system of the test is MCF7. Description: Cytotoxicity against human MCF7 cells after 24 hrs by MTT assay. Conditions: MCF7, 24 h. The class given is functional, cell-based.

On to `C=C(C)[C@@H](O)[C@H](O)C[C@@H](C)[C@H]1CC[C@@]2(C)[C@@H]3[C@@H](O)C=C4[C@@H](CC[C@H](O)[C@]4(C)CO)[C@]3(C)CC[C@]12C` [BALSAMINAPENTAOL A], for which the IC50 worked out at 47 µM.

With `CC(C)=C[C@H](O)C[C@@H](C)[C@H]1CC[C@@]2(C)[C@@H]3[C@@H](O)C=C4[C@@H](CC[C@H](O)[C@]4(C)CO)[C@]3(C)CC[C@]12C` [BALSAMINOL A], half-maximal inhibition (IC50) was put at 40 µM. `C[C@H](C/C=C/C(C)(C)O)[C@H]1CC[C@@]2(C)[C@@H]3[C@@H](O)C=C4[C@@H](CC[C@H](O)C4(C)C)[C@]3(C)CC[C@]12C`: the IC50 was 45.3 µM. As for `C[C@H](C/C=C/C(C)(C)O)[C@H]1CC[C@@]2(C)[C@@H]3[C@@H](O)C=C4[C@@H](CC[C@H](O)C4(C)C)[C@]3(C)C[C@@H](O)[C@]12C` [CUCURBALSAMINOL A], the figure is above 133 µM; as for `COc1cccc2c1C(=O)c1c(O)c3c(c(O)c1C2=O)C[C@@](O)(C(=O)CO)C[C@@H]3O[C@H]1C[C@H](N)[C@H](O)[C@H](C)O1` [DOXORUBICIN], 0.92 µM; as for `CO[C@H]1C=C2[C@@H](CC[C@H](O)[C@]2(C)CO)[C@]2(C)CC[C@]3(C)[C@@H]([C@H](C)C[C@@H](O)C=C(C)C)CC[C@@]3(C)[C@H]12` [BALSAMINOL B], 55.3 µM. Turning to `CC(C)=C[C@H](O)C[C@@H](C)[C@H]1CC[C@@]2(C)[C@@H]3C=C[C@@]45OC[C@]3(CC[C@]12C)[C@@H]4CC[C@H](O)C5(C)C` [KARAVILAGENIN E], the IC50 was 30.7 µM.

Broadly, the IC50 is the concentration needed to halve the response being measured. A higher IC50 goes with weaker potency.
